Results as given in paper PMC12752627, “Discovery of a Potent and Selective TEAD Degrader with Durable Degradation Activity” (Advanced Science, 2025).

Legend:
A172 cells [1] = test: RNA-seq transcriptomics in A172 cells; assay type: cell-based; conditions: 30 nM, 24 h
Experimental: Following treatment, cells were harvested, washed three times with pre‐chilled PBS, and stored at −80 °C. Total RNA was extracted using TRIzol reagent according to the manufacturer's instructions. mRNA was enriched using oligo(dT) magnetic beads, followed by fragmentation in First Strand Synthesis Reaction Buffer (5×) with divalent cations under elevated temperature.
RNA‐seq libraries were constructed using the ABclonal Fast RNAseq Lib Prep Kit V2 (#RK20306). […] Base calling was performed through real‐time fluorescence capture of polymerase‐driven extension reactions using fluorescently labeled dNTPs and adapter‐anchored primers. Gene‐level read counts were quantified using featureCounts (v2.0.6) and normalized to FPKM values by incorporating gene length. Differential expression analysis was conducted using the DESeq2 package (v1.42.0) for samples with biological replicates, based on the negative binomial distribution. P‐values were adjusted using the Benjamini–Hochberg method, with significance thresholds set at adjusted p ≤ 0.05 and |log2(fold change)| ≥ 1. For samples without replicates, edgeR (v4.0.16) was used, with scaling normalization applied to correct for sequencing depth differences. Functional enrichment analysis, including Gene Ontology (GO) and KEGG pathway analysis, was performed using clusterProfiler (v4.8.1), with correction for gene length bias. A significance threshold of adjusted p < 0.05 was applied. In addition, Gene Set Enrichment Analysis (GSEA) was performed to assess coordinated expression changes in predefined gene sets (GO and KEGG), with genes ranked by the magnitude of differential expression. All transcriptomic experiments were performed by Novogene Co., Ltd.

A172 cells [2] = test: Cell viability assay (CTG, 72 h) A172; assay type: cell-based; conditions: Homo sapiens, A 172, 72 h, 3-day compound treatment
Experimental: (§1) Cells were seeded at a density of 1000 cells per well in 96‐well flat‐bottomed cell culture plates and cultured overnight at 37 °C with 5% CO2 to allow for cell attachment. The following day, different concentrations of compounds were added using an I‐DOT dispenser. After 72 h, 25 µL of CellTiter‐Meiluncell Luminescent Cell Viability Reagent (Meilunbio, #PWL111‐2) was added and incubated for 15 min at room temperature. Luminescence signals were then measured using an Envision plate reader (Revvity). Data were analyzed using GraphPad Prism 9.5 software.^[ [30] ^]

TEAD1 = TEAD1 (Homo sapiens, UniProt P28347); test: HiBiT degradation assay, HEK293T HiBiT-TEAD1; assay type: cell-based; set-up: endogenous in cells; host or cells: HEK293T wild-type and CRBN-knockout; conditions: 6 h
Chain of TEAD1 (P28347 whole entry): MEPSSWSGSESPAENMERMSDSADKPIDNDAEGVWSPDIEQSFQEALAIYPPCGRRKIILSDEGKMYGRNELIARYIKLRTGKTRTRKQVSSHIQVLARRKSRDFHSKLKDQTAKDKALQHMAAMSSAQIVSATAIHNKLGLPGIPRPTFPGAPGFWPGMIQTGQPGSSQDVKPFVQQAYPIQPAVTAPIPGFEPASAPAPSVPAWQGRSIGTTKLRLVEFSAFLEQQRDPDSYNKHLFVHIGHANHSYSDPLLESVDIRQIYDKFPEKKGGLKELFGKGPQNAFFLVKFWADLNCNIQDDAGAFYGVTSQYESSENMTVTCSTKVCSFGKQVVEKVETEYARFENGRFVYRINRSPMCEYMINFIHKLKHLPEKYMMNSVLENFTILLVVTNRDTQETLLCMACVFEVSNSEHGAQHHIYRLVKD
Experimental: (§2) HiBiT cells were inoculated into 96‐well flat‐bottomed tissue culture plates at a density of 50 000 cells per well, followed by adding degraders into the wells using the I‐DOT dispenser. After 6 h of incubation, the cells were lysed and assayed for degradation using the Nano‐Glo HiBiT Lysis Assay System (Promega, #N3030). Luminescence signals were read using an Envision plate reader (Revvity) and the data were analyzed using GraphPad Prism 9.5 software.
(§3) The ribonucleoprotein (RNP) complex was prepared by mixing 2 µg of NLS‐Cas9‐EGFP nuclease (Novoprotein, #E379‐01A), 50 pmol of sgRNA, 10 µL of electrotransfer solution, and 50 pmol of designed donor DNA, then incubated for 10 min at room temperature. One million HEK293T cells were resuspended in 10 µL of electrotransfection solution and mixed with 10 µL of the RNP complex. Electroporation was performed using a Celetrix SP100 electroporator at 480 V. After electroporation, the cells were transferred to antibiotic‐free DMEM complete medium for overnight culture. The following day, EGFP‐positive cells were sorted using a Sony MA 900 cell sorter, plated in a 96‐well cell culture plate (Servicebio, #CCP‐96H), and cultured for 4 weeks. After this period, positive clones were screened using the Nano‐Glo HiBiT Lytic Detection system (Promega, #N3030).

TEAD2 = molecular target: T1, TEAD2 (Homo sapiens, UniProt Q15562); test: HiBiT degradation assay, HEK293T HiBiT-TEAD2; assay type: cell-based; conditions: 6 h
T1 construct: endogenous in cells; host or cells: HEK293T HiBiT knock-in
T1 sequence (Q15562 whole entry): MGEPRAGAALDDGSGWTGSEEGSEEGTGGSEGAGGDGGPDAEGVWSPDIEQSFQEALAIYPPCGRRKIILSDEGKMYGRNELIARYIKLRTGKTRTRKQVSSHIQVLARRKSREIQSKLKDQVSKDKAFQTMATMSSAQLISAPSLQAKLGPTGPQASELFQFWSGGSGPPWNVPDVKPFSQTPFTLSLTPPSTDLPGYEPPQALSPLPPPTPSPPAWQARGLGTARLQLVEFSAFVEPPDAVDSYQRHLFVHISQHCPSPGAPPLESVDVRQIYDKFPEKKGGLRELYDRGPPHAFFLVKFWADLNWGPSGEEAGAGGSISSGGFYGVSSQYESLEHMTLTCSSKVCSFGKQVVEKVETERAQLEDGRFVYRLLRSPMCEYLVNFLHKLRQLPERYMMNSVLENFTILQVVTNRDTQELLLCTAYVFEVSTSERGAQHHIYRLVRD
Experimental: as §2, §3

SmBiT-CRBN+LgBiT-TEAD1 = molecular target: T2, SmBiT-CRBN+LgBiT-TEAD1 (Homo sapiens, UniProt P28347+Q96SW2); test: NanoBiT recruitment assay (ternary complex formation) in HEK293T cells; assay type: cell-based; conditions: 3 h
T2 construct: ternary complex formation between CRBN (41‐442) and TEAD1‐YBD (208‐424) in HEK293T cells; expressed in transfected cells; host or cells: HEK293T (transient co-transfection)
T2 sequence (Q96SW2 41-442): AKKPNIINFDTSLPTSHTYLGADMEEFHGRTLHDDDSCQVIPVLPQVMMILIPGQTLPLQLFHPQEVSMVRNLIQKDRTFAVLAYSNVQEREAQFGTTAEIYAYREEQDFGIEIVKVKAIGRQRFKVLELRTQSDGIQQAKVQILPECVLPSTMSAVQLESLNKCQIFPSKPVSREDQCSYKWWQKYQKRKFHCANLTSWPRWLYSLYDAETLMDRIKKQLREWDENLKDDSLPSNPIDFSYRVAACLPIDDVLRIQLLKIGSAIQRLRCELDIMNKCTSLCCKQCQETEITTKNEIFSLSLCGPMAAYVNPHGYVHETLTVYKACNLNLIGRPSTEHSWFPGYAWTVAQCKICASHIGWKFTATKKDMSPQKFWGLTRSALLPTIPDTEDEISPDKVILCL
T2 sequence (P28347 208-424): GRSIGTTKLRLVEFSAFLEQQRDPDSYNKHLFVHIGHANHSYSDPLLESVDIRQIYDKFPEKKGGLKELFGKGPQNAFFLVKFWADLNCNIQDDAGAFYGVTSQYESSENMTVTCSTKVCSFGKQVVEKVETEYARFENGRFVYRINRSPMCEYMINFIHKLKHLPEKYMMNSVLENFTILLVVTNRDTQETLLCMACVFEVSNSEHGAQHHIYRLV
Experimental: CRBN was cloned into the SmBiT Flexi vector pFN35K (Promega), while TEAD1 was cloned into the Promega LgBiT Flexi vector pFN33K (Promega). A total of 8 µg of plasmid DNA, consisting of 2 µg of SmBiT‐CRBN plasmid and 6 µg of LgBiT‐TEAD1 plasmid, was mixed with 24 µL of the liposome transfection reagent Lipo2000 (Meilunbio, #MA0672), added to 300 µL of Opti‐MEM Reduced Serum medium (Meilunbio, #PWL042), and incubated for 20 min at room temperature. The resulting mixture was then added to 3 mL of HEK293T cell suspension at a density of 1 × 10^6 cells mL^−1 in DMEM medium containing 1% FBS, mixed thoroughly, and 18.4 µL of the mixture was transferred to each well of a white 384‐well plate (Corning, #3570), followed by incubation for 24 h. Subsequently, 2.5 µL of MLN4924 (MCE, #HY‐70062) was added to reach a final concentration of 1 µM, and the cells were incubated for an additional 4 h. Next, 3 µL of compound KG‐FP‐003 at the indicated concentrations was added, and incubation continued for 3 more hours. Afterward, a mixture of Nano‐Glo Live Cell Substrate and Nano‐Glo LCS Dilution Buffer (Promega, #N2011) was added to the 384‐well plates at 6 µL per well and incubated for 20 min at room temperature. Finally, the luminescence signal was measured using an Envision plate reader (Revvity), and the data were analyzed using GraphPad Prism 9.5 software.

[3] = Pharmacokinetic evaluation in ICR male mice; assay type: in vivo; conditions: mouse, plasma
NCI-H226 cells = test: Cell viability assay (CTG, 72 h) NCI-H226; assay type: cell-based; conditions: Homo sapiens, NCI-H226, 72 h; 3-day antiproliferation; read-out: IC50 (nM ± SD), NCI-H226
Experimental: as §1

## CNC(=O)c1cc2c(c(F)c1-c1c(Cl)c(F)cc3c1C[C@@](CN[C@H]1CC[C@H](C(=O)N4CCC(CC5CCN(C(=O)COc6ccc(N7CCC(=O)NC7=O)c(C)c6)CC5)CC4)CC1)(c1ccccc1)O3)[C@@H](O)[C@@H](C)C2 [KG-FP-003]
A172 cells [1]
  Share of the compound's regulated genes in the 56-gene overlap: 4%
A172 cells [1]; VS Control (DMSO)
  DEG gene counts (Down): 611
  DEG gene counts (Up): 662
A172 cells [2]
  IC50: 7 ± 6 nM
TEAD1
  DC50: 6 ± 4 nM
  TEAD1 Dmax: ≈ 90%
TEAD1; HEK-293T
  Dmax: 93 ± 1%
TEAD2
  DC50: 68 ± 15 nM
  TEAD2 Dmax: over 80%
TEAD2; HEK-293T
  Dmax: 84 ± 5%
SmBiT-CRBN+LgBiT-TEAD1
  EC50: 8 ± 4 nM
[3]; IP 5 mg/kg
  AUC(0-inf): 2610 ng·h/mL
  AUC(0-t): 2560 ng·h/mL
  Cmax: 2010 ng/mL
  MRT inf: 3.13 h
  Tmax: 0.42 h
  half-life: 5.42 h
[3]; IP 5 mg/kg, read-out: F% (bioavailability)
  bioavailability: 99%
[3]; IV 2 mg/kg
  AUC(0-inf): 1060 ng·h/mL
  AUC(0-t): 1040 ng·h/mL
  Cmax: 4430 ng/mL
  MRT inf: 1.4 h
  Tmax: 0 h
  half-life: 3.57 h
NCI-H226 cells
  IC50: 27 ± 7 nM
